Measurements taken from patent US20120071475A1, “UREA DERIVATIVES HAVING PI3K-INHIBITING ACTIVITY” (SHIONOGI & CO., LTD., priority 2009, published 2012).
Like-named read-outs stand apart in the source and are kept apart here.

Experiments:
PI3Kγ [1] = biological target: T1, PI3Kγ (Homo sapiens, UniProt P48736); assay: PI3Kγ inhibitory activity (Ki value); type: biochemical
How it was run: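 Ki derived from IC50 measured at final compound levels of 50–0.05 μmol/L (HTRF read-out; 40 μmol/L ATP, 10 mmol/L MgCl2, 5 mmol/L DTT), IC50 by logistic or two-point linear fit. ATP Km from Lineweaver-Burk over 0.625–80 μmol/L ATP; Ki = IC50/(1+[ATP]/Km).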

AKT phosphorylation = AKT phosphorylation inhibitory activity in MCP-1 stimulated THP-1 cells (sandwich ELISA); type: cell-based, Human; conditions: compound at 1 μmol/L, MCP-1 stimulation; for inhibition at 1 µM: Homo sapiens, read-out: AKT phosphorylation inhibition ratio
How it was run: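 THP-1 cells (6.7×10^6/mL in HBSS) were preincubated with compound at 1 μmol/L for 5 min at 37 °C, then stimulated for 60 s with HBSS containing 1.2 μg/mL MCP-1 and lysed. Phospho-Akt Ser473/AKT1 sandwich ELISA was read at A450. % inhibition: no compound = 100% activity, no MCP-1 = 0%.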

PI3Kγ [2] = biological target: T1, PI3Kγ; assay: PI3Kγ inhibitory activity (PI3-kinase HTRF assay, inhibition ratio); type: biochemical; conditions: compound at 10 μmol/L; for inhibition at 10 µM: 0.5 h, read-out: PI3Kg Inhibition Ratio % (10 μM)
How it was run: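 Compound at 10 μmol/L preincubated 10 min with PI3Kγ and PIP2 substrate, then reacted with ATP for 30 minutes at room temperature; the compound, substrate and ATP figures as printed (40 μmol/L each) are solution concentrations. HTRF 665/620 nm ratio read after 18 hours. Inhibition ratio calculated against no-compound (100%) and no-enzyme (0%) controls.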

[3] = class symbols, read-out: PI3K γ Ki

T1 sequence (P48736 whole entry, species assumed): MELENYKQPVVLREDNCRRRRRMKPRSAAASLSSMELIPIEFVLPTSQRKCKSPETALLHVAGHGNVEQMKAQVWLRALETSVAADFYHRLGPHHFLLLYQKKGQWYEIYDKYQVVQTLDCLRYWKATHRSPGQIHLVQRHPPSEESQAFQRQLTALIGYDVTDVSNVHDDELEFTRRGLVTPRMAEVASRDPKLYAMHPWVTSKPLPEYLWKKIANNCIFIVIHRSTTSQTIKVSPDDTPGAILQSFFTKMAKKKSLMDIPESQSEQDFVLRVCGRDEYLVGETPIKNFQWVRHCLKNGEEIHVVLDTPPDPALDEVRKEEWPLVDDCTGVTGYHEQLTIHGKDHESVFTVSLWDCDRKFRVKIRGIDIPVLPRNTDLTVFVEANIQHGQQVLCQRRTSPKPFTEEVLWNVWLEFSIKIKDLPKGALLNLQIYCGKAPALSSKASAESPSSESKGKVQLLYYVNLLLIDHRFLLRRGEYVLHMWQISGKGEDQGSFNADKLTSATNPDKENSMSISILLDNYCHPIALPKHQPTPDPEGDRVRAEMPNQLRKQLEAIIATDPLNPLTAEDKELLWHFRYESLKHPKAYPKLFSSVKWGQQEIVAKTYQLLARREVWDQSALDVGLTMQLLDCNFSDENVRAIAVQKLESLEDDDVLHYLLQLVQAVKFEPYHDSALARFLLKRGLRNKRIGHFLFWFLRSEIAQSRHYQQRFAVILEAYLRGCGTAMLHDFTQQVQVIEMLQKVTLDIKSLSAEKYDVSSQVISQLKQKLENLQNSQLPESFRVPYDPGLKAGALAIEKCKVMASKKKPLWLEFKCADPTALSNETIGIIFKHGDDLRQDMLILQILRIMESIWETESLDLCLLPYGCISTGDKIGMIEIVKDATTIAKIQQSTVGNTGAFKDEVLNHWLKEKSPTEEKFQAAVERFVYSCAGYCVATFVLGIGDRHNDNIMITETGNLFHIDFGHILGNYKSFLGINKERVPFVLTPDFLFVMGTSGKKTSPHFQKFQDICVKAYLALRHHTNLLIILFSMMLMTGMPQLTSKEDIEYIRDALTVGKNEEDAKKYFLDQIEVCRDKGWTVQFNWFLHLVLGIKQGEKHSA

Row | Compound | Ki (PI3Kγ [1]; [3]) [nM] | Ki (PI3Kγ [1]; read-out: PI3Kγ Ki value) [nM] | inhibition at 10 µM (PI3Kγ [2]) [%] | PI3Kg Inhibition Ratio % (10 μM) (PI3Kγ [2]) | inhibition at 1 µM (AKT phosphorylation) [%] | AKT phosphorylation inhibition ratio (AKT phosphorylation) [%]
1 | COc1cc(N2CCc3nc(NC(=O)Nc4ccccc4C(=O)NC(C)C)sc3C2)nc(OC)n1 [Compound I-12] | ≤ 30 | 9.6 | 94 | – | ≥ 95 | –
2 | COc1cc(N2CCc3nc(NC(=O)Nc4ccccc4C(=O)NCCF)sc3C2)nc(OC)n1 [Compound I-88] | – | – | ≥ 95 | – | 87.3 | –
3 | COc1nc(Cl)cc(N2CCc3nc(NC(=O)Nc4cnccc4C(=O)NC(C)C)sc3C2)n1 [Compound I-91] | ≤ 3 | 1.4 | ≥ 95 | – | 94.7 | –
4 | COc1cncc(-c2ccc3nc(NC(=O)Nc4ccccc4OCCC(C)C)cn3n2)c1 [Compound I-114] | ≤ 300 | 33 | – | – | 64.9 | –
5 | Cc1nc(NC(=O)Nc2ccccc2C(=O)NC(C)C)sc1-c1ccc(S(C)(=O)=O)c(F)c1 [Compound I-127] | ≤ 30 | 16 | ≥ 95 | – | 77.7 | –
6 | CC(C)NC(=O)c1ccccc1NC(=O)Nc1nc2c(s1)CN(c1cncc(C(F)(F)F)c1)CC2 [Compound I-131] | ≤ 3 | 0.8 | 78 | – | 84 | –
7 | COc1cc(N2CCc3nc(NC(=O)Nc4ccccc4C(=O)NC(C)C(O)C(F)(F)F)sc3C2)nc(OC)n1 (stereo not drawn) [Compound I-139] | – | – | – | ≧95% | – | ≥ 95
8 | COc1cc(N2CCc3nc(NC(=O)Nc4cn(C)nc4C(=O)NCC(F)(F)F)sc3C2)nc(OC)n1 [Compound I-148] | ≤ 30 | 5.5 | 90 | – | ≥ 95 | –
9 | Cc1nc(NC(=O)Nc2ccccc2C(=O)NC(C)C)sc1-c1csc(S(=O)(=O)N(C)CCN(C)C)c1 [Compound I-191] | – | 300 | 87 | – | 93 | –

Now from value to compound, other results behind:

Row | Ki (PI3Kγ [1]; [3]) [nM] | Ki (PI3Kγ [1]; read-out: PI3Kγ Ki value) [nM] | inhibition at 10 µM (PI3Kγ [2]) [%] | PI3Kg Inhibition Ratio % (10 μM) (PI3Kγ [2]) | Compound | inhibition at 1 µM (AKT phosphorylation) [%] | AKT phosphorylation inhibition ratio (AKT phosphorylation) [%]
10 | – | – | ≥ 95 | – | COc1cc(N2CCc3nc(NC(=O)Nc4ccccc4C(=O)NN4CCN(C)CC4)sc3C2)nc(OC)n1 [Compound I-195] | 82 | –
11 | ≤ 3 | 2.3 | ≥ 95 | – | COc1nc(Cl)cc(N2CCc3nc(NC(=O)Nc4ccccc4C(=O)NC4CCCOC4)sc3C2)n1 (stereo not drawn) [Compound I-197] | 90 | –
12 | – | – | ≥ 95 | – | CC(C)NC(=O)c1ccccc1NC(=O)Nc1nc2c(s1)CN(c1cccc(S(C)(=O)=O)c1)CC2 [Compound I-198] | 94 | –
13 | – | – | 91 | – | COc1cc(N2CCc3nc(NC(=O)Nc4ccccc4C(=O)NC4CCOCC4)sc3C2)nc(OC)n1 [Compound I-203] | ≥ 95 | –
14 | – | – | 87 | – | C[C@@H](CO)NC(=O)c1ccccc1NC(=O)Nc1nc2c(s1)CN(c1cncc(S(C)(=O)=O)c1)CC2 [Compound I-211] | 85 | –
15 | ≤ 3000 | 830 | 93 | – | COc1cncc(-c2cc(NC(=O)Nc3ccccc3C(=O)NC(C)C)nn2C)c1 [Compound I-226] | – | –
